Data: patent US8853258B2, “C-linked hydroxamic acid derivatives useful as antibacterial agents” (Pfizer Inc., priority 2009, dated 2014)
Converted amounts (≈) assume the structure as drawn. Read-outs that look alike come from different tables or passages of the source.

Columns and labels:
[1] = target: Pseudomonas aeruginosa LpxC enzyme (Pseudomonas aeruginosa (strain ATCC 15692 / DSM 22644 / CIP 104116 / JCM 14847 / LMG 12228 / 1C / PRS 101 / PAO1), UniProt P47205); test: IC50 Assay, LpxC Enzyme from P. aeruginosa (PA LpxC Enzyme IC50); format: biochemical
Method in brief: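 Reaction run 1 h then stopped with 1N HCl. Conversion measured by RapidFire high-throughput mass spectrometry. IC50 derived from percent conversion relative to a no-enzyme control.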

[2] = tested on: Acinetobacter baumanii/haemolyticus: Multidrug-resistant clinical isolate (AB-3167); test: MIC determination (CLSI), AB-3167; format: cell-based; settings: for MIC: Acinetobacter baumannii
Method in brief: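 Multidrug-resistant clinical isolate AB-3167 (A. baumannii/haemolyticus) tested for minimum inhibitory concentration following CLSI dilution susceptibility standards M7-A7 and M100-S18.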

[3] = tested on: Escherichia coli EC-1: VOGEL, mouse virulent; test: MIC determination (CLSI), EC-1; format: cell-based; settings: for MIC: Escherichia coli
Method in brief: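 E. coli Vogel, a mouse-virulent strain (EC-1), was tested. MICs were set by dilution susceptibility testing per CLSI standards M7-A7/M100-S18.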

[4] = tested on: Klebsiella pneumoniae: Ciprofloxacin-resistant isolate, ESBL, clinical isolate (KP-3700); test: MIC determination (CLSI), KP-3700; format: cell-based
Method in brief: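 MIC measured by broth dilution according to CLSI M7-A7 and M100-S18 standards. Test organism was a ciprofloxacin-resistant, ESBL-expressing clinical isolate.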

[5] = tested on: Pseudomonas aeruginosa UI-18: Wild-type (PA-7); test: MIC determination (CLSI), PA-7; format: cell-based; settings: for MIC: Pseudomonas aeruginosa
Method in brief: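 MIC by dilution method per CLSI M7-A7 and M100-S18 guidelines. Strain: wild-type Pseudomonas aeruginosa UI-18.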

[6] = P. aeruginosa LpxC enzyme, read-out: PA LpxC enzyeme IC50
[7] = Acinetobacter baumanii/haemolyticus multidrug-resistant clinical isolate AB-3167
[8] = Escherichia coli EC-1 VOGEL, mouse virulent
[9] = Pseudomonas aeruginosa UI-18 wild-type PA-7
[10] = Table 3, read-out: PA LpxC enzyeme IC^50
[11] = Table 1, read-out: PA LpxC enzyeme IC50
[12] = Table 1, MIC, read-out: AB-3167 (MIC)
[13] = Table 1, MIC, read-out: PA-7 (MIC)
[14] = Acinetobacter baumanii/haemolyticus AB-3167
[15] = Pseudomonas aeruginosa UI-18 (PA-7)

SMILES | IC50 [1, 6] | AB-3167 MIC [2, 7] | EC-1 MIC [3, 8] | KP-3700 MIC [4] | PA-7 MIC [5, 9] | other results
CC(CCc1ccc(-c2ccc(O)c(F)c2)cc1)(C(=O)NO)S(C)(=O)=O (stereo not drawn) [Example 138] | 0.335 nM | 32 µg/mL | 2 µg/mL | 8 µg/mL | 1 µg/mL | 
CN1CCN(c2ccc(-c3ccc(CCC(C)(C(=O)NO)S(C)(=O)=O)cc3)cc2)CC1 (stereo not drawn) [Example 166] | 1.17 nM | ≧64 mg/L | 4 µg/mL | 16 µg/mL | 2 µg/mL | 
CC(CCc1ccc(-c2ccc(N3CCOCC3)cc2)cc1)(C(=O)NO)S(C)(=O)=O (stereo not drawn) [Example 165] | 0.295 nM | ≧64 mg/L | 0.5 µg/mL | 8 µg/mL | 8 µg/mL | 
CC(CCc1ccc(-c2cccnc2)c(F)c1)(C(=O)NO)S(C)(=O)=O (stereo not drawn) [Example 197] | 7.11 nM | ≧64 mg/L | ≧64 mg/L | ≧64 mg/L | 8 µg/mL | 
CC(Oc1ccc(CCC(C)(C(=O)NO)S(C)(=O)=O)cc1)c1ccccc1 (stereo not drawn) [Example 282, N-hydroxy-2-methyl-2-(methylsulfonyl)-4-[4-(1-phenylethoxy)phenyl]butanamide] |  |  |  | ≧64 mg/L |  | IC50 [1, 10]: 9.55 nM; MIC ([2]; Table 3, read-out: AB-3167 MIC): 32 µg/mL (≈ 81.7 µM); MIC ([3]; read-out: EC-1 MIC): 8 µg/mL (≈ 20.4 µM); MIC ([5]; Table 3, read-out: PA-7 MIC): ≥ 64 µg/mL
CC(CCc1ccc(OCc2nc(C3CCC3)no2)cc1)(C(=O)NO)S(C)(=O)=O (stereo not drawn) [Example 300, 4-{4-[(3-cyclobutyl-1,2,4-oxadiazol-5-yl)methoxy]phenyl}-N-hydroxy-2-methyl-2-(methylsulfonyl)butanamide] |  |  |  | 32 µg/mL |  | IC50 [1, 10]: 7.56 nM; MIC ([2]; Table 3, read-out: AB-3167 MIC): ≥ 64 µg/mL; MIC ([3]; read-out: EC-1 MIC): 16 µg/mL (≈ 37.8 µM); MIC ([5]; Table 3, read-out: PA-7 MIC): 32 µg/mL (≈ 75.6 µM)
Cc1ccc(F)c(-c2noc(COc3ccc(CCC(C)(C(=O)NO)S(C)(=O)=O)cc3)n2)c1 (stereo not drawn) [Example 291, 4-(4-{[3-(2-fluoro-5-methylphenyl)-1,2,4-oxadiazol-5-yl]methoxy}phenyl)-N-hydroxy-2-methyl-2-(methylsulfonyl)butanamide] |  |  |  | ≧64 mg/L |  | IC50 [1, 10]: 9.27 nM; MIC ([2]; Table 3, read-out: AB-3167 MIC): ≥ 64 µg/mL; MIC ([3]; read-out: EC-1 MIC): 16 µg/mL (≈ 33.5 µM); MIC ([5]; Table 3, read-out: PA-7 MIC): ≥ 64 µg/mL
Cc1cc(-c2ccc(F)cc2)ccc1CCC(C)(C(=O)NO)S(C)(=O)=O (stereo not drawn) [Example 157] | 0.337 nM | 8 µg/mL | 1 µg/mL | 4 µg/mL | 4 µg/mL | 
CC(CCc1ccc(-c2ccccc2)cc1F)(C(=O)NO)S(C)(=O)=O (stereo not drawn) [Example 2, 4-(3-Fluorobiphenyl-4-yl)-N-hydroxy-2-methyl-2-(methylsulfonyl)butanamide] |  |  |  | 4 µg/mL |  | IC50 [1, 11]: 0.26 nM; MIC [2, 12]: 16 µg/mL (≈ 43.8 µM); MIC ([3]; read-out: EC-1: (MIC)): 1 µg/mL (≈ 2.74 µM); MIC [5, 13]: 1 µg/mL (≈ 2.74 µM)
CC(=O)c1ccc(-c2ccc(CC[C@](C)(C(=O)NO)S(C)(=O)=O)cc2)nc1 [Example 189] | 0.711 nM | ≧64 mg/L | 16 µg/mL | 16 µg/mL | 4 µg/mL | 
CC(CCc1ccc(-c2ccc(-c3cc(CO)no3)cc2)cc1)(C(=O)NO)S(C)(=O)=O (stereo not drawn) [Example 9, N-Hydroxy-4-{4′-[3-(hydroxymethyl)isoxazol-5-yl]biphenyl-4-yl}-2-methyl-2-(methylsulfonyl)butanamide] |  |  |  | 4 µg/mL |  | IC50 [1, 11]: 0.32 nM; MIC [2, 12]: 32 µg/mL (≈ 72 µM); MIC ([3]; read-out: EC-1: (MIC)): 0.125 µg/mL (≈ 0.281 µM); MIC [5, 13]: 2 µg/mL (≈ 4.5 µM)
CC(CCc1ccc(-c2ccc3c(c2)CNC3)cc1)(C(=O)NO)S(C)(=O)=O (stereo not drawn) [Example 173] | 2.68 nM | ≧64 mg/L | ≧64 mg/L | ≧64 mg/L | 16 µg/mL | 
C[C@@](CCc1ccc(-c2ccc(C#N)cn2)cc1)(C(=O)NO)S(C)(=O)=O [Example 202] | 0.808 nM |  |  | 16 µg/mL |  | AB-3167 MIC [2, 14]: ≧64 mg/L; EC-1 MIC ([3]; Escherichia coli EC-1): 8 µg/mL; PA-7 MIC [5, 15]: 1 µg/mL
COc1ccc(-c2ccc(CC[C@](C)(C(=O)NO)S(C)(=O)=O)cc2)cn1 [Example 212] | 0.237 nM |  |  | 16 µg/mL |  | AB-3167 MIC [2, 14]: ≧64 mg/L; EC-1 MIC ([3]; Escherichia coli EC-1): 4 µg/mL; PA-7 MIC [5, 15]: 1 µg/mL
Cc1cccc(-c2ccc(CCC(C)(C(=O)NO)S(C)(=O)=O)cc2)c1C (stereo not drawn) [Example 78] | 0.444 nM | ≧64 mg/L | 2 µg/mL | 16 µg/mL | 2 µg/mL | 
CC(CCc1ccc(-c2cc(F)ccc2F)cc1)(C(=O)NO)S(C)(=O)=O (stereo not drawn) [Example 38] | 0.752 nM | 16 µg/mL | 2 µg/mL | 32 µg/mL | 1 µg/mL | 
C[C@@](CCc1ccc(-c2ccc3c(c2)CNC3=O)cc1)(C(=O)NO)S(C)(=O)=O [Example 199] | 0.266 nM | ≧64 mg/L | 8 µg/mL | 32 µg/mL | 2 µg/mL | 
Cc1cc(-c2ccccc2)ccc1CCC(C)(C(=O)NO)S(C)(=O)=O (stereo not drawn) [Example 1, N-Hydroxy-2-methyl-4-(3-methylbiphenyl-4-yl)-2(methylsulfonyl)butanamide] |  |  |  | 8 µg/mL |  | IC50 [1, 11]: 1.68 nM; MIC [2, 12]: 16 µg/mL (≈ 44.3 µM); MIC ([3]; read-out: EC-1: (MIC)): 2 µg/mL (≈ 5.53 µM); MIC [5, 13]: 4 µg/mL (≈ 11.1 µM)
CC(CCc1ccc(OCc2cccc3cccnc23)cc1)(C(=O)NO)S(C)(=O)=O (stereo not drawn) [Example 296, N-hydroxy-2-methyl-2-(methylsulfonyl)-4-[4-(quinolin-8-ylmethoxy)phenyl]butanamide] |  |  |  | 16 µg/mL |  | IC50 [1, 10]: 15.8 nM; MIC ([2]; Table 3, read-out: AB-3167 MIC): 32 µg/mL (≈ 74.7 µM); MIC ([3]; read-out: EC-1 MIC): 8 µg/mL (≈ 18.7 µM); MIC ([5]; Table 3, read-out: PA-7 MIC): ≥ 64 µg/mL
Cc1cc(-c2ccc(C#N)cc2)ccc1CCC(C)(C(=O)NO)S(C)(=O)=O (stereo not drawn) [Example 161] | 0.725 nM | ≧64 mg/L | 1 µg/mL | 16 µg/mL | 4 µg/mL | 
CCc1ccccc1COc1ccc(CCC(C)(C(=O)NO)S(C)(=O)=O)cc1 (stereo not drawn) [Example 306, 4-{4-[(2-ethylbenzyl)oxy]phenyl}-N-hydroxy-2-methyl-2-(methylsulfonyl)butanamide] |  |  |  | 32 µg/mL |  | IC50 [1, 10]: 0.813 nM; MIC ([2]; Table 3, read-out: AB-3167 MIC): 16 µg/mL (≈ 39.5 µM); MIC ([3]; read-out: EC-1 MIC): 8 µg/mL (≈ 19.7 µM); MIC ([5]; Table 3, read-out: PA-7 MIC): 16 µg/mL (≈ 39.5 µM)
CC(CCc1ccc(OCc2c(F)cccc2F)cc1)(C(=O)NO)S(C)(=O)=O (stereo not drawn) [Example 258, 4-{4-[(2,6-difluorobenzyl)oxy]phenyl}-N-hydroxy-2-methyl-2-(methylsulfonyl)butanamide] |  |  |  | 16 µg/mL |  | IC50 [1, 10]: 0.599 nM; MIC ([2]; Table 3, read-out: AB-3167 MIC): 32 µg/mL (≈ 77.4 µM); MIC ([3]; read-out: EC-1 MIC): 2 µg/mL (≈ 4.84 µM); MIC ([5]; Table 3, read-out: PA-7 MIC): 2 µg/mL (≈ 4.84 µM)
CC(=O)c1ccc(-c2ccc(CCC(C)(C(=O)NO)S(C)(=O)=O)c(F)c2)cn1 (stereo not drawn) [Example 188] | 0.348 nM | ≧64 mg/L | 8 µg/mL | 8 µg/mL | 2 µg/mL | 
CC(CCc1ccc(COc2ccc(F)cc2)cc1)(C(=O)NO)S(C)(=O)=O (stereo not drawn) [Example 228] | 3.28 nM |  |  | 16 µg/mL |  | AB-3167 MIC [2, 14]: 16 µg/mL; EC-1 MIC ([3]; Escherichia coli EC-1): 8 µg/mL; PA-7 MIC [5, 15]: 8 µg/mL
Cc1cccc(COc2ccc(CCC(C)(C(=O)NO)S(C)(=O)=O)cc2)c1 (stereo not drawn) [Example 310, N-hydroxy-2-methyl-4-{4-[(3-methylbenzyl)oxy]phenyl}-2-(methylsulfonyl)butanamide] |  |  |  | 8 µg/mL |  | IC50 [1, 10]: 0.883 nM; MIC ([2]; Table 3, read-out: AB-3167 MIC): 16 µg/mL (≈ 40.9 µM); MIC ([3]; read-out: EC-1 MIC): 2 µg/mL (≈ 5.11 µM); MIC ([5]; Table 3, read-out: PA-7 MIC): 4 µg/mL (≈ 10.2 µM)
CC(C)(O)C(=O)c1ccc(-c2ccc(CC[C@](C)(C(=O)NO)S(C)(=O)=O)cc2)cc1 [Example 217] | 0.278 nM |  |  | 4 µg/mL |  | AB-3167 MIC [2, 14]: ≧64 mg/L; EC-1 MIC ([3]; Escherichia coli EC-1): 0.5 µg/mL; PA-7 MIC [5, 15]: 4 µg/mL
CC(CCc1ccc(-c2ccc(N3CCNCC3)cc2)cc1)(C(=O)NO)S(C)(=O)=O (stereo not drawn) [Example 185] | 6.22 nM | ≧64 mg/L | 16 µg/mL | ≧64 mg/L | 8 µg/mL | 
CSc1cccc(-c2ccc(CCC(C)(C(=O)NO)S(C)(=O)=O)cc2)c1 (stereo not drawn) [Example 56] | 0.417 nM | 8 µg/mL | 2 µg/mL | 4 µg/mL | 2 µg/mL | 
CC(=O)c1ccc(-c2ccc(CCC(C)(C(=O)NO)S(C)(=O)=O)cc2)cc1 (stereo not drawn) [Example 108] | 0.176 nM | 32 µg/mL | 0.5 µg/mL | 2 µg/mL | 0.5 µg/mL | 
C[C@@](CCc1ccc(-c2ccc(C#N)cc2)cc1)(C(=O)NO)S(C)(=O)=O [Example 107] | 0.134 nM | 16 µg/mL | 0.25 µg/mL | 1 µg/mL | 0.25 µg/mL | 
